# Assay results as given in patent EP0361301A1, “Microbicidal compositions for the disinfection of dental impression materials” (Merz & Co. GmbH & Co., priority 1988, dated 1990).
# Test system: Human Immunodeficiency Virus (HIV bzw. auch HTLV III oder LAV)
# Experiment: HIV inactivation in suspension test versus 0.7 % formaldehyde
# Conditions: 0,7%ig
# Text: Die Wirksamkeit der erfindungsgemässen Zubereitungen gegen den eine AIDS-Infektion verursachenden Human Immunodeficiency Virus (HIV bzw. auch HTLV III oder LAV) im Vergleich zu 0,7%igem Formaldehyd ergab eine um eine Zehnerpotenz höhere Inaktivierung des HIV bei 1%iger Konzentration der erfindungsgemässen Zubereitung 1 in nur 5 Minuten.
smiles,measurement,value
C=O [Formaldehyd],toxischer Effekt im Suspensionsversuch,toxischen Effektes
